Measured values from the Kinase Knowledgebase extract (Sharma et al. 2016).

biological target: PIK3CD (Human) (UniProt O00329); experiment: Enzyme Assay
Sequence (O00329 whole entry, looked up): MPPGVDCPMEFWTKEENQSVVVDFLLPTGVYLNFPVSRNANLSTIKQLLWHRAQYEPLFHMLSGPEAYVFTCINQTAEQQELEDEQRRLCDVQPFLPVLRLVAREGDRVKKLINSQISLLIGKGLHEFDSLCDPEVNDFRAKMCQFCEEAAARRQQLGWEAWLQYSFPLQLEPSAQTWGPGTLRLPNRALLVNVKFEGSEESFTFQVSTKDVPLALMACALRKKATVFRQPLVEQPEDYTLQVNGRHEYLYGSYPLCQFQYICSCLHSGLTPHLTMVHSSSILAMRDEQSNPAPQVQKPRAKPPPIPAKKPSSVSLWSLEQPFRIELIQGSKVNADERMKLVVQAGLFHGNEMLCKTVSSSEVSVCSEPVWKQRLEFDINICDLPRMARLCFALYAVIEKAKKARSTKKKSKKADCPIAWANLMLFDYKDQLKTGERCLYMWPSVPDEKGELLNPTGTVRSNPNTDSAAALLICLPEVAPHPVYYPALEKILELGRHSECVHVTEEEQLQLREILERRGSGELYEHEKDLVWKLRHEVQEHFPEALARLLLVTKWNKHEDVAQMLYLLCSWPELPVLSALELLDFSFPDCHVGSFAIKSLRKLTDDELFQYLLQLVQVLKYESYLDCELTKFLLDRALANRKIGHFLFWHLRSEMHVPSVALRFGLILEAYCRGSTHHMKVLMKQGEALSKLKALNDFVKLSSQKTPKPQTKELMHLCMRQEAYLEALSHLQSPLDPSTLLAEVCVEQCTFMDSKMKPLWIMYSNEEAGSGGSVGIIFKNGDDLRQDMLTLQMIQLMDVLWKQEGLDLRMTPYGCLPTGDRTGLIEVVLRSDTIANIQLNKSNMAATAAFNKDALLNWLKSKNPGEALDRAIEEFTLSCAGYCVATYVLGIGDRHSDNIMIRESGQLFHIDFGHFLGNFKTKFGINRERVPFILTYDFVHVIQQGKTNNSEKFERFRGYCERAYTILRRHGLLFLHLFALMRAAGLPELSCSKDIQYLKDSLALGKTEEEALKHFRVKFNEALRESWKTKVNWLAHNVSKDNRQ

Row | IC50 [nM] | SMILES
1 | ≤ 1 | C[C@H](Nc1nc(N)nc(N)c1C#N)c1nc2cccc(Cl)c2c(=O)n1-c1cccc(C(F)F)c1
2 | 1 to 10 | C[C@H](Nc1nc(N)nc(N)c1C(N)=O)c1nc2cccc(Cl)c2c(=O)n1-c1cccc(C(F)F)c1
3 | 1 to 10 | C[C@H](Nc1nc(N)nc(N)c1C#N)c1nc2cccc(S(C)(=O)=O)c2c(=O)n1-c1cc(F)cc(F)c1
4 | ≤ 1 | C[C@H](Nc1nc(N)nc(N)c1C#N)c1cc2cccc(Cl)c2c(=O)n1-c1ccccc1
5 | 1 to 10 | C[C@H](Nc1nc(N)nc(N)c1C#N)c1nc2c(C#N)cccc2c(=O)n1-c1cccc(C(F)F)c1
6 | 1 to 10 | C[C@H](Nc1nc(N)nc(N)c1C#N)c1nc2cccc(C#N)c2c(=O)n1-c1cccc(F)c1
7 | 10 to 50 | C[C@H](Nc1nc(N)nc(N)c1C#N)c1nc2c(F)ccc(Cl)c2c(=O)n1-c1cc(F)cc(C#N)c1
8 | 10 to 50 | C[C@H](Nc1nc(N)nc(N)c1C#N)c1nc2cccc(S(C)(=O)=O)c2c(=O)n1-c1cc(F)cc(C(F)F)c1
9 | 1 to 10 | C[C@H](Nc1nc(N)nc(N)c1C#N)c1nc2cccc(F)c2c(=O)n1-c1cccc(F)c1
10 | 10 to 50 | C[C@H](Nc1nc(N)nc(N)c1C#N)c1nc2cccc(F)c2c(=O)n1-c1cc(Cl)cc(Cl)c1
11 | 1 to 10 | Cc1ccc(F)c2c(=O)n(-c3cc(F)cc(F)c3)c([C@H](C)Nc3nc(N)nc(N)c3C#N)nc12
12 | 10 to 50 | C[C@H](Nc1nc(N)nc(N)c1C#N)c1nc2ccc(F)c(Cl)c2c(=O)n1-c1cc(F)cc(C(F)F)c1
13 | 1 to 10 | C[C@H](Nc1nc(N)nc(N)c1C#N)c1nc2c(F)ccc(F)c2c(=O)n1-c1cccc(F)c1
14 | 1 to 10 | C[C@H](Nc1ncnc(N)c1C#N)c1nc2cccc(Cl)c2c(=O)n1-c1cc(F)cc(F)c1
15 | 1 to 10 | COC[C@@H](Nc1nc(N)nc(N)c1C#N)c1nc2cccc(Cl)c2c(=O)n1-c1cc(F)cc(F)c1
16 | 1 to 10 | C[C@H](Nc1nc(N)nc(N)c1C#N)c1nc2c(C#N)cc(F)cc2c(=O)n1-c1ccccc1
17 | 10 to 50 | C[C@H](Nc1nc(N)nc(N)c1C#N)c1nc2cccc(C(N)=O)c2c(=O)n1-c1cc(F)cc(F)c1
18 | 1 to 10 | C[C@H](Nc1nc(N)nc(N)c1C#N)c1nc2cccc(Cl)c2c(=O)n1-c1cc(Cl)cc(C(F)F)c1
19 | 10 to 50 | CC(C)C[C@H](Nc1nc(N)nc(N)c1C#N)c1nc2cccc(Cl)c2c(=O)n1-c1cccc(C#N)c1
20 | 1 to 10 | C[C@H](Nc1nc(N)nc(N)c1C#N)c1nc2c(Cl)ccc(F)c2c(=O)n1-c1cc(F)cc(F)c1
21 | 1 to 10 | CC[C@H](Nc1nc(N)nc(N)c1C#N)c1nc2cccc(Cl)c2c(=O)n1-c1cc(F)cc(C(F)F)c1

Row | IC50 [nM] | SMILES
22 | 1 to 10 | C[C@H](Nc1nc(N)nc(N)c1C#N)c1nc2ccc(F)c(Cl)c2c(=O)n1-c1cc(F)cc(F)c1
23 | ≤ 1 | C[C@H](Nc1nc(N)nc(N)c1Cl)c1cc2cccc(Cl)c2c(=O)n1-c1ccccc1
24 | 10 to 50 | CC[C@H](Nc1nc(N)nc(N)c1C#N)c1nc2ccc(F)cc2c(=O)n1-c1cc(F)cc(F)c1
25 | ≤ 1 | Cc1ccc(F)c2nc([C@H](C)Nc3nc(N)nc(N)c3C#N)n(-c3cccc(C#N)c3)c(=O)c12
26 | ≤ 1 | Cc1cccc2nc([C@H](C)Nc3nc(N)nc(N)c3C#N)n(-c3ccccc3)c(=O)c12
27 | ≤ 1 | C[C@H](Nc1nc(N)nc(N)c1C#N)c1nc2cccc(Cl)c2c(=O)n1-c1cc(F)cc(F)c1
28 | 1 to 10 | CC[C@H](Nc1nc(N)nc(N)c1C#N)c1nc2cccc(C(F)F)c2c(=O)n1-c1cc(F)cc(F)c1
29 | 1 to 10 | C[C@H](Nc1nc(N)nc(N)c1C#N)c1nc2cccc(C(F)F)c2c(=O)n1-c1cc(F)cc(F)c1
30 | ≤ 1 | C[C@H](Nc1nc(N)nc(N)c1C#N)c1nc2cccc(C(F)F)c2c(=O)n1-c1ccccc1
31 | ≤ 1 | C[C@H](Nc1nc(N)nc(N)c1C(N)=O)c1nc2cccc(Cl)c2c(=O)n1-c1ccccc1
32 | 10 to 50 | CC[C@H](Nc1nc(N)nc(N)c1C#N)c1nc2c(F)cc(F)cc2c(=O)n1-c1cc(F)cc(F)c1
33 | 1 to 10 | Cc1cccc2c(=O)n(-c3cc(F)cc(F)c3)c([C@H](C)Nc3nc(N)nc(N)c3C#N)nc12
34 | ≤ 1 | CC(C)[C@H](Nc1nc(N)nc(N)c1C#N)c1nc2cccc(Cl)c2c(=O)n1-c1ccccc1
35 | 10 to 50 | C[C@H](Nc1nc(N)nc(N)c1C#N)c1nc2ccc(F)c(Cl)c2c(=O)n1-c1cccc(C#N)c1
36 | 1 to 10 | CC[C@H](C)[C@H](Nc1nc(N)nc(N)c1C#N)c1nc2cccc(Cl)c2c(=O)n1-c1cc(F)cc(F)c1
37 | 10 to 50 | C[C@H](Nc1nc(N)nc(N)c1C#N)c1nc2ccc(F)cc2c(=O)n1-c1cccc(C#N)c1
38 | 1 to 10 | C[C@H](Nc1nc(N)nc(N)c1C#N)c1nc2c(F)ccc(C#N)c2c(=O)n1-c1ccccc1
39 | 1 to 10 | CC(C)C[C@H](Nc1nc(N)nc(N)c1C#N)c1nc2cccc(Cl)c2c(=O)n1-c1cc(F)cc(F)c1
40 | 1 to 10 | CC[C@H](Nc1nc(N)nc(N)c1C#N)c1nc2cccc(F)c2c(=O)n1-c1cc(F)cc(F)c1
41 | 10 to 50 | C[C@H](Nc1nc(N)nc(N)c1C#N)c1nc2ccc(F)c(F)c2c(=O)n1-c1cc(F)cc(F)c1
42 | 1 to 10 | COc1cc(F)cc(-n2c([C@H](C)Nc3nc(N)nc(N)c3C#N)nc3cccc(Cl)c3c2=O)c1

Row | IC50 [nM] | SMILES
43 | 1 to 10 | Cc1ccc(Cl)c2c(=O)n(-c3cc(F)cc(F)c3)c([C@H](C)Nc3nc(N)nc(N)c3C#N)nc12
44 | 1 to 10 | Cc1cccc2nc([C@H](C)Nc3nc(N)nc(N)c3C#N)n(-c3cc(F)cc(C#N)c3)c(=O)c12
45 | 1 to 10 | C[C@H](Nc1nc(N)nc(N)c1C#N)c1nc2cccc(S(C)(=O)=O)c2c(=O)n1-c1c(F)cccc1F
46 | 1 to 10 | CC(C)[C@H](Nc1nc(N)nc(N)c1C#N)c1nc2cccc(Cl)c2c(=O)n1-c1cc(F)cc(F)c1
47 | 1 to 10 | C[C@H](Nc1nc(N)nc(N)c1C#N)c1nc2cccc(S(C)(=O)=O)c2c(=O)n1-c1cccc(C(F)F)c1
48 | 1 to 10 | C[C@H](Nc1nc(N)nc(N)c1C#N)c1nc2cccc(C#N)c2c(=O)n1-c1cc(F)cc(F)c1
49 | 1 to 10 | C[C@H](Nc1nc(N)nc(N)c1C#N)c1nc2cccc(S(C)(=O)=O)c2c(=O)n1-c1cccc(F)c1
50 | 1 to 10 | C[C@H](Nc1nc(N)nc(N)c1C#N)c1nc2cccc(C(F)F)c2c(=O)n1-c1cccc(C#N)c1
51 | 1 to 10 | C[C@H](Nc1nc(N)nc(N)c1C#N)c1nc2cccc(Cl)c2c(=O)n1-c1cc(C(F)F)cc(C(F)F)c1
52 | 1 to 10 | C[C@H](Nc1nc(N)nc(N)c1C#N)c1nc2cccc(C(N)=O)c2c(=O)n1-c1ccccc1
53 | 10 to 50 | COc1cccc2nc([C@H](C)Nc3nc(N)nc(N)c3C#N)n(-c3ccccc3)c(=O)c12
54 | 1 to 10 | CC[C@H](Nc1nc(N)nc(N)c1C#N)c1nc2c(F)ccc(F)c2c(=O)n1-c1ccccc1
55 | ≤ 1 | Cc1ccc(Cl)c2c(=O)n(-c3cccc(Cl)c3)c([C@H](C)Nc3nc(N)nc(N)c3C#N)nc12
56 | 1 to 10 | C[C@H](Nc1nc(N)nc(N)c1C#N)c1nc2ccc(F)cc2c(=O)n1-c1cc(F)cc(F)c1
57 | 10 to 50 | C[C@H](Nc1nc(N)nc(N)c1C#N)c1nc2cccc(F)c2c(=O)n1-c1cc(F)cc(C#N)c1
58 | ≤ 1 | C[C@H](Nc1nc(N)nc(N)c1C#N)c1nc2cccc(Cl)c2c(=O)n1-c1ccccc1
59 | 10 to 50 | C[C@H](Nc1nc(N)nc(N)c1C#N)c1nc2cc(F)c(F)cc2c(=O)n1-c1cc(F)cc(F)c1
60 | 1 to 10 | C[C@H](Nc1nc(N)nc(N)c1C#N)c1nc2c(Cl)ccc(Cl)c2c(=O)n1-c1cc(F)cc(F)c1
61 | 10 to 50 | CC[C@H](Nc1nc(N)nc(N)c1C#N)c1nc2ccccc2c(=O)n1-c1cc(F)cc(F)c1
